1 molecule from US20250281497A1, “FUSED AMINO PYRIMIDINE COMPOUNDS FOR TREATMENT OF SEIZURE DISORDERS” (Ovid Therapeutics Inc., priority 2024, published 2025) can be followed below.

The experiment has as its target T1, KCC2 (Homo sapiens, UniProt Q9H2X9).
T1 construct: expressed in transfected cells; host or cells: HEK-293 (ATCC CRL-1573)
T1 sequence (Q9H2X9 1-1116 isoform Q9H2X9-2): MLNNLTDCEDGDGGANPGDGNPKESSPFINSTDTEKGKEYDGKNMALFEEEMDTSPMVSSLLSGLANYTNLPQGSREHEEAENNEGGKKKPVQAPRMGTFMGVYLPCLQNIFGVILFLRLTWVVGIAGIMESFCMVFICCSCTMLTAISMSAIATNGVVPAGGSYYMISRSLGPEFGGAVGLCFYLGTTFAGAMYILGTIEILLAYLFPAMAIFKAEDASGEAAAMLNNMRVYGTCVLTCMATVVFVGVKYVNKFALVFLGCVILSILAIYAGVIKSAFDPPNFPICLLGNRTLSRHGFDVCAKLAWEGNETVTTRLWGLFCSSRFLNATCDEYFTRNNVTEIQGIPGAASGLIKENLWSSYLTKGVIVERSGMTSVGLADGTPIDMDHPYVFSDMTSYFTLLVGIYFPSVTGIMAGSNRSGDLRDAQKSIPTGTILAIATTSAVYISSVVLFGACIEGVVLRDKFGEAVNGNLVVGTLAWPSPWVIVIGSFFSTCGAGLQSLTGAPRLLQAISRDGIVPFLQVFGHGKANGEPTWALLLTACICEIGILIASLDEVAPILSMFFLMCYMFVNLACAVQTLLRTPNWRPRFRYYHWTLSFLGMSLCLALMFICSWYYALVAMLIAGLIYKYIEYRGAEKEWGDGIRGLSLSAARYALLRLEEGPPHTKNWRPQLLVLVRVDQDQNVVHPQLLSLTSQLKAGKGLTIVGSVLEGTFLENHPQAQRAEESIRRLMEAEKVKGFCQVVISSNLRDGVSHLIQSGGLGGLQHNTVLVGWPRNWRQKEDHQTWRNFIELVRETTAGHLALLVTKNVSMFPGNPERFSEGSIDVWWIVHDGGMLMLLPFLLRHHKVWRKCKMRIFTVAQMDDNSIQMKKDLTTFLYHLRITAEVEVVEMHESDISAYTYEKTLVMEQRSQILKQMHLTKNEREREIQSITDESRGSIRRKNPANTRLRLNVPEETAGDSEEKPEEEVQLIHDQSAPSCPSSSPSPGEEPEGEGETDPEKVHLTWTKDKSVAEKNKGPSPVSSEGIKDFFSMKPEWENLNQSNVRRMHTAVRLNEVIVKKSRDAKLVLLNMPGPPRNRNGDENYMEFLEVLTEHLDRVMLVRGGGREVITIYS
Nature of the experiment: FLIPR Tl+ flux assay, HEK-293 cells expressing KCC2. It counts as cell-based. The procedure: A multi-tiered high-throughput screening assay was used, leveraging a proprietary library of 1.3 million small molecule compounds from AstraZeneca (Cambridge, UK) to identify chemical entities capable of activating KCC2. A single point concentration of 30 μM was used to identify potassium flux using an established thallium […] influx FLIPR assay as the primary read out in HEK-293 cells overexpressing KCC2 (Cardarelli et al., Nat. Med. 23, 1394-1396 (2017); Conway et al., J Biol Chem 292, 21253-21263 (2017); Lee et at, 2022, supra).
Cell Culture and biotinylation. […]
FLIPR TI Flux assay. HEK-293 cells were washed with HBSS, and then incubated with loading buffer containing TI sensitive fluorescent dye (https://www.moleculardevices.com), 20 μM bumetanide 20 μM ouabain and 2.5 mM probenecid for 1 h at room temperature (RT) under control conditions or with drugs in the dark using a FlexStation 3 microplate reader (Molecular Devices) and imaged […] for 30 min. Stimulus buffer was added containing 5 mM K^+/0.5 mM Tl^+ and cells were imaged every 1.5 over a 190 second time course The initial rate Tl^+ uptake (Relative Fluorescence Units (RFU) per second) was determined following addition of the stimulus buffer as outlined previously (Conway et at, 2017, supra) (Lee et at, 2022, supra). […]

Each structure is given as a SMILES string. Where “and” joins values, the source holds several entries; their conditions need not be identical. Equal values may be shown once.

Usually EC50 stands for the concentration at which the effect is half-maximal.

For the molecule `C[C@@H]1CN(c2nc3c(c(Nc4ccc(C5CCCCC5)cc4)n2)COC3)CCO1` [Compound A, (R)—N-(4-cyclohexylphenyl)-2-(2-methylmorpholino)-5,7-dihydrofuro[3,4-d]pyrimidin-4-amine], the EC50 (HEK-293 cells expressing KCC2, 1% β-cyclodextrin vehicle, read-out: EC50 for KCC2 as measured by Tl+ flux) was 260 nM and 261 nM. The “maximum potentiation of KCC2” value (saturating concentration of 3 μM, 1% BCD vehicle) was found to be 90%.
